{
  "source": "patent EP0419081A2",
  "about": "“Method for protein binding enzyme complementation assays” (MICROGENICS CORPORATION, priority 1989, dated 1991)",
  "key": {"FBP": {"target": "T1, FBP (Bos taurus, UniProt P02702)", "T1 construct": "purchased Scripps", "T1 sequence (P02702 20-234)": "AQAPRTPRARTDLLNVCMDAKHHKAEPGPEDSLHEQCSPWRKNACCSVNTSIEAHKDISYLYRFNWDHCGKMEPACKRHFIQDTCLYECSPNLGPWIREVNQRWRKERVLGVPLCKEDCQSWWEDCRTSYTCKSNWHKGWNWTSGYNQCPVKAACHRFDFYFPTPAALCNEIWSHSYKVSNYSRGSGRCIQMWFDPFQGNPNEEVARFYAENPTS", "experiment": "Folate dose response", "format": "biochemical", "conditions": "for 5′- 9′: rate OD₄₂₀ 5 to 9 min, FBP 1:1000, ED14-folate #34", "protocol": "The following buffer systems and reagents were used and will be abbreviated as stated below: • 1. Sample buffer; 100 mM sodium phosphate, 20 mM sodium azide and 0.2% BSA. • 2. Assay buffer pH 7.0; 10 mM ethylene glycol tetraacetic acid, 2 mM magnesium acetate, 20 mM sodium azide, 150 mM sodium phosphate, 100 mM potassium phosphate, 0.05% Tween 20, 0.05 mM dithiothreitol, adjusted to pH 7.0. • 3. EA; enzyme acceptor • 4. ED; enzyme donor • 5. FBP Scripps; folate binding protein from Scripps 2.25 mg/ml stock • 6. CPRG; chlorophenol red β-D galactopyranoside • 7. ONPG: 2-nitrophenol β-D galactopyranoside\nA folate dose response was elicited as follows. The following reagents were prepared; EA at a concentration of 3750 nM in Assay buffer p8 7.0, ED14-folate (fraction #34) at a concentration of 26.66 nM in Assay/ONPG buffer pH 7.0, FBP at a dilution of 1:1000 in sample buffer and folic acid standards at 0, 2.5, 5.0, 10.0 and 20.0 ng/ml in sample buffer. […] Rates were calculated by subtracting the OD₄₂₀ at 5 min from the OD₄₂₀ at 9 min."}, "anti-T4 antibody": {"system": "anti-T4 antibody", "experiment": "Affinity constant by ED titration, Scatchard plot, T4 conjugates", "format": "binding", "conditions": "ED titration against fixed anti-T4 Ab, no secondary antibody", "protocol": "The Ka was determined as follows: To determine the affinity constant of an antibody for an experimental ED conjugate, an ED titration against a fixed antibody is carried out. Antibody binding to the conjugated ED is monitored by inhibition of formation of active enzyme as indicated by a decrease in chromogenic substrate turnover. The resulting data is plotted in a Scatchard format (Bound/Free vs. [Bound]). The slope of the line generated is equal to ∼KA in L/mole."}, "[1]": {"system": "anti-T4 antibody (T4-pool 393A)", "experiment": "Immunochemical testing on the Encore, T4 conjugates", "format": "biochemical", "protocol": "The immunochemical testing was performed on the Encore. […] The ligand concentrations employed are indicated in the legend to the table. The ED and antibody were preincubated on the rotor for 15 min at 37°C. All antibody concentrations were assayed in duplicate. No correction was made for variations of total protein in the assays."}, "EA23": {"system": "EA23", "protocol": "This example illustrates an immunoassay for thyroxine as analyte using H6-thyroxine conjugate as enzyme-donor, EA23 as enzyme-acceptor, anti-thyroxine antibody and a series of concentrations of thyroxine.\nReagents for the assay were prepared as follows: L-thyroxine standard: 2.6 mg L-thyroxine (Sigma Chemical, St. Louis, MO) was dissolved in 200 µl absolute ethanol and 800 µl 0.15M NaHCO₃ added and the mixture stored at 25°C. Two fold dilutions of thyroxine were prepared in ethanol: 0.15M NaHCO₃ (1:4). L-thyroxine antibody: Antisera to thyroxine (T4) was purchased from Western Chemical Research Corp., Denver, CO. Several lots were tested for titer and an equilibrium constant determined in a radio-immunoassay with IgM Sorb (Enzyme Center, Malden, MA). […] EA23 acceptor-enzyme: 6.3X10-⁷M in storage buffer. Substrate: o-nitrophenyl-β-D-galactopyranoside (ONPG) was dissolved in 2.5 X Z buffer to a final concentration 10 mg/ml solution.\nThe assay was performed in microtiter plates (Dynatech Cat. #001-012-9200 American Scientific Products, Sunnyvale, CA) and read on a Titertak Multiscan microtiter plate reader fitted with a 414 nm filter (Flow Laboratories, Rockville, MO). To each well was added 100 µl of PM2 buffer containing 0.05% Tween 20 (polyoxyethylene sorbitan monolaurate) (Sigma Chemical Co., St. Louis, MO). To each well was added sequentially 2.5 µl H6-thyroxine conjugate, 2.5 µl of anti-thyroxine antibody, 2.5 µl of the thyroxine standards and 40 µl of EA23."}, "[2]": {"system": "analyte specific antiserum", "experiment": "Immunopurity by precipitation of the enzyme donor conjugate with antibody", "format": "binding", "conditions": "% of ED conjugate activity which can be removed by analyte specific antiserum"}, "EA": {"system": "EA", "experiment": "Equilibrium specific activity", "format": "biochemical", "conditions": "ED and EA incubated together for 18 hours"}},
  "note": "Like-named read-outs stand apart in the source and are kept apart here.",
  "data": [
    {"compound": "Nc1nc2ncc(CNc3ccc(C(=O)N[C@@H](CCC(=O)O)C(=O)O)cc3)nc2c(=O)[nH]1", "note": "[folic acid]", "values": [
      {"measurement": "% Mod", "setting": "FBP; folic acid standard 5.0 ng/ml", "value": 13.4, "unit": "%"},
      {"measurement": "Net", "setting": "FBP; folic acid standard 5.0 ng/ml", "value": 52},
      {"measurement": "5′- 9′", "setting": "FBP; folic acid standard 5.0 ng/ml", "value": 388.5},
      {"measurement": "% Mod", "setting": "FBP; folic acid standard 10.0 ng/ml", "value": 24.1, "unit": "%"},
      {"measurement": "Net", "setting": "FBP; folic acid standard 10.0 ng/ml", "value": 107},
      {"measurement": "5′- 9′", "setting": "FBP; folic acid standard 10.0 ng/ml", "value": 443.5},
      {"measurement": "% Mod", "setting": "FBP; folic acid standard 20.0 ng/ml", "value": 40.0, "unit": "%"},
      {"measurement": "Net", "setting": "FBP; folic acid standard 20.0 ng/ml", "value": 2255},
      {"measurement": "5′- 9′", "setting": "FBP; folic acid standard 20.0 ng/ml", "value": 562}
    ]},
    {"compound": "m-maleimide-benzoyl-L-Thyroxine-ED₄ conjugate [ED4T4]", "values": [
      {"measurement": "Ka (L/mole) x10-9", "setting": "anti-T4 antibody", "value": 1.97, "unit": "L/mole x10-9"},
      {"measurement": "Immunochemical Testing %I 1/2Sat", "setting": "[1]; T4-pool 393A at 1:12,000, ED titrated until one-half of Ab binding sites saturated, no secondary antibody", "value": 34, "unit": "%"},
      {"measurement": "Immunochemical Testing (0.125 nM Sys [ED])", "setting": "[1]; maximum amount of complementation inhibition, ED system concentration 0.125 nM, Ab constant", "value": 47, "unit": "%"},
      {"measurement": "OD₄₁₅", "setting": "EA23; Well 2: ED₄-T4 2.5 µl only, no EA", "value": 0.001},
      {"measurement": "OD₄₁₅", "setting": "EA23; Well 3: ED₄-T4 2.5 µl, EA 40 µl", "value": 0.595},
      {"measurement": "OD₄₁₅", "setting": "EA23; Well 4: ED₄-T4 2.5 µl, Antibody 2.5 µl, EA 40 µl", "value": 0.300},
      {"measurement": "OD₄₁₅", "setting": "EA23; Well 5: ED₄-T4 2.5 µl, Antibody 2.5 µl, Thyroxine 6.25 µg/µl, EA 40 µl", "value": 0.312},
      {"measurement": "OD₄₁₅", "setting": "EA23; Well 6: ED₄-T4 2.5 µl, Antibody 2.5 µl, Thyroxine 12.5 µg/µl, EA 40 µl", "value": 0.320},
      {"measurement": "OD₄₁₅", "setting": "EA23; Well 7: ED₄-T4 2.5 µl, Antibody 2.5 µl, Thyroxine 25 µg/µl, EA 40 µl", "value": 0.364},
      {"measurement": "Immuno-Purity", "setting": "[2]", "value": 96, "unit": "%"},
      {"measurement": "Specific Activity (u/mg) (% ED4-T4) Equilibrium", "setting": "EA", "value": 100, "unit": "%"}
    ]}
  ]
}
